≈ marks a conversion by molar mass, not a printed value. Where two headings read alike, the source gives them in different places.
Key:
[1] = Rat liver microsomal stability; format: in vitro ADME; settings: for half-life: SD, rat, liver microsomes, read-out: Rat_SD/Microsomes t1/2 (m)
Method: (§1) The rat liver microsomal stability, parallel artificial membrane permeability assay (PAMPA), and aqueous kinetic solubility assay in phosphate-buffered saline (PBS) buffer were performed as described in the indicated references.

NOX2 [2] = biological target: T1, NOX2 (Mus musculus, UniProt Q61093); assay: NOX2 activity in primary mouse neutrophils enriched from bone marrow; format: cell-based; settings: SD, n = 8 mice
T1 construct: relative potencies in primary mouse neutrophils enriched from bone marrow; endogenous in cells; host or cells: primary mouse bone-marrow granulocytes
T1 sequence (Q61093 2-570 limits assumed): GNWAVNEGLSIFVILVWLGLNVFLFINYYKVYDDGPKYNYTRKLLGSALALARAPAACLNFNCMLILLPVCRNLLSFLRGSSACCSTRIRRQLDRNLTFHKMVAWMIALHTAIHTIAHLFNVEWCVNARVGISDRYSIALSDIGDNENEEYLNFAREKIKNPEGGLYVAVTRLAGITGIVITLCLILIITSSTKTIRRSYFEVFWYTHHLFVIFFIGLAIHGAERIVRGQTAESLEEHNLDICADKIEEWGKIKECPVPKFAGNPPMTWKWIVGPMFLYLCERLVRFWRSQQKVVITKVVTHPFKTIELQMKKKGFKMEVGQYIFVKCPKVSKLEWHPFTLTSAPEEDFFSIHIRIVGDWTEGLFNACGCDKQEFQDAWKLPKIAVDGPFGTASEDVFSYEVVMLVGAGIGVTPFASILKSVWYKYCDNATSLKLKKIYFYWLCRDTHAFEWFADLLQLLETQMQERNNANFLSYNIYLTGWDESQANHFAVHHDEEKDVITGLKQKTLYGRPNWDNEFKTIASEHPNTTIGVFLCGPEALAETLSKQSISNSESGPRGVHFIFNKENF
T1 sequence (Q61462 2-192 partner limits assumed): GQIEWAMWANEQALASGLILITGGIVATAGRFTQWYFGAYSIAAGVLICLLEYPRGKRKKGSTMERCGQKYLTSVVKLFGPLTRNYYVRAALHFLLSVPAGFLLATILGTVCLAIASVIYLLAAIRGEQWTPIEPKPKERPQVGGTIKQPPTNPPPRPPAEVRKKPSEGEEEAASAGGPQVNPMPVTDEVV
Method: (§2) Human blood was obtained after informed consent by the Department of Transfusion Medicine (NIH Clinical Center) and provided as de-identified specimens. Human granulocytes were isolated using Percoll density fractionation as described and NOX2 activity was assessed in white polypropylene flat bottom 96 well plates following 15 min of preincubation at 37 °C with compounds or vehicle controls using 50 μM luminol as a chemiluminescence enhancer in an assay volume of 100 μl RPMI1640 with 1.1 × 10^5 cells/well in Varioskan Lux luminometer for 30 cycles of 1 s per well (approximately 1 h).
Mouse granulocytes were isolated from bone marrow essentially as described except bones were not sterilized in ethanol and marrow was not flushed through a 100 μm strainer. Furthermore, RPMI1640 was supplemented with 10% FBS, 2 mM EDTA, and 25 mM HEPES buffer and penicillin/streptomycin was omitted. Polymorphonuclear leukocytes (PMN) concentration and purity (>90% granulocytes) were assessed microscopically using 3% acetic acid and a hemacytometer. NOX2 activity was assessed as described above with human granulocytes.

[3] = Aqueous kinetic solubility in PBS buffer; format: physicochemical
Method: as §1

xanthine oxidase = settings: cited from earlier work
NOX2 [4] = settings: read-out: IC50 for NOX2, originally reported; cited from earlier work
Bovine Xanthine Oxidase = biological target: T2, Bovine Xanthine Oxidase (Bos taurus, UniProt P80457); assay: Xanthine oxidase / hypoxanthine luminol chemiluminescence assay; format: biochemical; settings: xanthine oxidase with hypoxanthine; mean ± SD, n in cell; read-out: X/XO IC50
T2 construct: purchased Sigma
T2 sequence (P80457 whole entry): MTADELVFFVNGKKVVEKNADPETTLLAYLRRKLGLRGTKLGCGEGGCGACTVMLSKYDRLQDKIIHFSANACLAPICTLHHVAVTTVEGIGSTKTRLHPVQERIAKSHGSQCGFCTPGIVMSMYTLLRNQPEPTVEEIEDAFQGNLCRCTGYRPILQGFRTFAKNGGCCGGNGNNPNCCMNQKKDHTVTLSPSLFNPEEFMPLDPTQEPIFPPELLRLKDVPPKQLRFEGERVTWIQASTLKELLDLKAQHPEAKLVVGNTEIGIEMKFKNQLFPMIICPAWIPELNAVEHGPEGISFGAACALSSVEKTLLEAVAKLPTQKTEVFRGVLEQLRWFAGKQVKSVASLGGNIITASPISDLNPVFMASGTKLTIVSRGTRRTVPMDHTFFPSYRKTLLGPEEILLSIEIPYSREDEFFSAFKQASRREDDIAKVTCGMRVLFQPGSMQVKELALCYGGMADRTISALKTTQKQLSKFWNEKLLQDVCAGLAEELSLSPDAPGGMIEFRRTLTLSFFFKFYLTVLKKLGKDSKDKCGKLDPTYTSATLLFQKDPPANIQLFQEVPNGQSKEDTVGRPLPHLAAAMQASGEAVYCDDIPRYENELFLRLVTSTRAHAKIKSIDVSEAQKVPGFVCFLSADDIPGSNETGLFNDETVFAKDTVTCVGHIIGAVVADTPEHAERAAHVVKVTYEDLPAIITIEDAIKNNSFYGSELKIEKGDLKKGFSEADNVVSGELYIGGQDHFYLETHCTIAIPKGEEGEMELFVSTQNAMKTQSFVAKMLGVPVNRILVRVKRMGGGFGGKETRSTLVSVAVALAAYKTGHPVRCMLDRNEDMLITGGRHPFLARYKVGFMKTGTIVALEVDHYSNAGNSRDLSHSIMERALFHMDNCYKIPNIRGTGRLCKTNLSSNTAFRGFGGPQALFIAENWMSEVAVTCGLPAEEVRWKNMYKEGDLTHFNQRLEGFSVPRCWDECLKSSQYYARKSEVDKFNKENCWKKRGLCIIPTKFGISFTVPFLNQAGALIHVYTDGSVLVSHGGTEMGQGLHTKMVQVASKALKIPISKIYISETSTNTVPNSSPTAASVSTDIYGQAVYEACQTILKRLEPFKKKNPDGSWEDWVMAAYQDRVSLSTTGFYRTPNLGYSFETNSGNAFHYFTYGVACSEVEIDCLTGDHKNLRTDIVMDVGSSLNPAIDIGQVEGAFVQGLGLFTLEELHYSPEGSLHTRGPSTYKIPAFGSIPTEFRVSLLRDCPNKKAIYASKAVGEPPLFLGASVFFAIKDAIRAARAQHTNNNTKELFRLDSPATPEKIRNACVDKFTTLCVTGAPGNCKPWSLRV
Method: Bovine Xanthine Oxidase (Sigma) was dialyzed in PBS to remove ammonium sulfate and stored at 4 °C. Hypoxanthine was prepared by heating in DMSO. Reactions were prepared by diluting xanthine oxidase in HBSS (final concentration 1.25 mU/mL) that contained 50 μM luminol and were preincubated 5 min with control or inhibitor before the addition of hypoxanthine at a final concentration of 0.5 mM. Luminescence was measured at 24 °C as described above.

[5] = Parallel artificial membrane permeability assay (PAMPA); format: in vitro ADME; settings: for Papp: pH 7.4, PAMPA, pH7.4, read-out: Permeability(pH7.4) (PAMPA_Pion_Lipid 1e-6 cm/s)
Method: as §1

NOX1-NOX5 = assay: Expi293 whole cell assays, comparison across panel of NOX family members; format: cell-based, human
Method: Given concerns about previous assays for specific NOX family members we here report the first use of the Expi293 Expression System (Thermo Scientific) to overexpress NOX1, 2, 3, 4, and 5 in excess of any endogenous NOX proteins present in these cells. Transfections were performed following the manufacturer's instructions using the plasmids for each NOX as described in Supplemental Table 2 except that the enhancer solution provided with the Expi293 system was not used because it promoted enzyme activation.
After the times indicated in Supplemental Table 2, cells were washed and 50,000 added per well of a white 96-well plate (Greiner) along with 50 μM Luminol and 2.5 U horseradish peroxidase/mL in a volume of 90 μl for NOX1, NOX2, and NOX5. Inhibitors or vehicle controls were added and cells were incubated for 20 min at 37 °C prior to activation with the indicated stimuli. For NOX3 and NOX4 (constitutively active), cells were incubated with inhibitor or vehicle control prior to the addition of luminol and HRP. Chemiluminescence was measured every 2 min for 1 s per well at 37 °C in a Varioscan Multimode reader. AUC data were analyzed using GraphPad Prism using non-linear regression analysis after expressing relative to control alone (maximum ROS production).

NOX2 [6] = biological target: T3, NOX2 (Homo sapiens, UniProt P04839); assay: NOX2 activity in primary human granulocytes (PMN), luminol chemiluminescence; format: cell-based; set-up: When tested against NOX2 in primary human neutrophils; endogenous in cells; host or cells: primary human granulocytes (PMN) from donor blood; settings: mean ± SD, n in cell; read-out: NOX-2 IC50 from PMN
T3 sequence (P04839 2-570 limits assumed): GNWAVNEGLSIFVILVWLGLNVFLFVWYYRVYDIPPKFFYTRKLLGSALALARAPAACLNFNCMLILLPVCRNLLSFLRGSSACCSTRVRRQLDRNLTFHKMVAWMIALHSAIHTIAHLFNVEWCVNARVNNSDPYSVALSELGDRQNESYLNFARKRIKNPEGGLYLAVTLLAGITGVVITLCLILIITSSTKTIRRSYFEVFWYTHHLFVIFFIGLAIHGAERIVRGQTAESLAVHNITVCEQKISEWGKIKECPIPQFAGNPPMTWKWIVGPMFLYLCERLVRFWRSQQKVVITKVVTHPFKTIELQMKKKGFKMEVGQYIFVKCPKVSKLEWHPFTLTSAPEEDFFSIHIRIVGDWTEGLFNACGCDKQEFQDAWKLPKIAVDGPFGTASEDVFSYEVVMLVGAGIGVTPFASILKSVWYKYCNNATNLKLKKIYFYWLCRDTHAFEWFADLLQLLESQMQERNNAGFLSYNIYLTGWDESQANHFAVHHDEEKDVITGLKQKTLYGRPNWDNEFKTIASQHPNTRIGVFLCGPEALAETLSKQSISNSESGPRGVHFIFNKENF
T3 sequence (P13498 2-195 partner limits assumed): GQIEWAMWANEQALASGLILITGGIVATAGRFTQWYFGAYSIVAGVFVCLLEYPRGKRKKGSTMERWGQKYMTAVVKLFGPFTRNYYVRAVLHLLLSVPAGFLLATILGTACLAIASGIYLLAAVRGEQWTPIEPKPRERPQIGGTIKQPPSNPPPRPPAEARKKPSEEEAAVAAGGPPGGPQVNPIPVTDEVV
Method: as §2

[7] = aqueous buffer, kinetic from dmso stock, read-out: Solubility

Row | Rat_SD/Microsomes t1/2 (m) [1] | IC50 (NOX2 [2]) | solubility [3] | IC50 (Bovine Xanthine Oxidase) | Permeability(pH7.4) (PAMPA_Pion_Lipid 1e-6 cm/s) [5] | half-life [1] | solubility [3, 7] | IC50 (NOX2 [6]) | Papp [5] | Compound | greater concentrations required to inhibit xanthine oxidase than NOX2 (xanthine oxidase) | IC50 (NOX2 [4]) | differences in activity across the panel of NOX family members (NOX1-NOX5)
1 | – | – | – | 2.3 µM | – | 0.9 min | 13.1 µg/mL (≈ 24.6 µM) | 11.8 µM | 907 ×10⁻⁶ cm/s | Cn1ccc([S+](=O)([O-])Nc2ccnc3c2c(-c2ccc4c(c2)N(C2CC2)CC4)cn3CC2CCOCC2)n1 [NCGC00650068, CN1C=CC(=N1)[S+]([O-])(=O)NC2=C3C(=CN(CC4CCOCC4)C3=NC=C2)C5=CC6=C(CCN6C7CC7)C=C5] | – | – | –
2 | – | – | – | 19 µM | – | 18.2 min | 31.1 µg/mL (≈ 69.2 µM) | > 20 µM | 182 ×10⁻⁶ cm/s | Cn1ccc([S+](=O)([O-])Nc2ccnc3c2c(-c2ccc4c(c2)C(O)CC4)cn3C2CC2)n1 (stereo not drawn) [NCGC00650073, CN1C=CC(=N1)[S+]([O-])(=O)NC2=C3C(=CN(C4CC4)C3=NC=C2)C5=CC6=C(CCC6O)C=C5] | – | – | –
3 | – | – | – | 3.2 µM | – | 14 min | 39.7 µg/mL (≈ 83.3 µM) | 0.0555 µM | 293 ×10⁻⁶ cm/s | CN(C)C1CCc2ccc(-c3cn(C4CC4)c4nccc(N[S+](=O)([O-])c5ccn(C)n5)c34)cc21 (stereo not drawn) [NCGC00650075, CN(C)C1CCC2=C1C=C(C=C2)C3=CN(C4CC4)C5=NC=CC(N[S+]([O-])(=O)C6=NN(C)C=C6)=C35] | – | – | –

Further lines, the molecule ahead of its results:

Row | Compound | Rat_SD/Microsomes t1/2 (m) [1] | IC50 (NOX2 [2]) | solubility [3] | IC50 (Bovine Xanthine Oxidase) | Permeability(pH7.4) (PAMPA_Pion_Lipid 1e-6 cm/s) [5] | half-life [1] | solubility [3, 7] | IC50 (NOX2 [6]) | Papp [5] | greater concentrations required to inhibit xanthine oxidase than NOX2 (xanthine oxidase) | IC50 (NOX2 [4]) | differences in activity across the panel of NOX family members (NOX1-NOX5)
4 | CC(C)n1cc(-c2ccc3c(c2)N(C)CC3)c2c(NS(=O)(=O)c3ccn(C)n3)ccnc21 [GSK2795039, reference compound] | 1.02 m | 2.17 ± 1.11 µM | 36.7 µg/mL (≈ 81.5 µM) | […] | […] | – | – | – | – | […] | […] | unable to demonstrate significant differences in activity
5 | CCn1cc(-c2ccc3c(c2)N(C2CC2)CC3)c2c(N[S+](=O)([O-])c3ccn(C)n3)ccnc21 [NCGC00650067, CCN1C=C(C2=C(N[S+]([O-])(=O)C3=NN(C)C=C3)C=CN=C12)C4=CC5=C(CCN5C6CC6)C=C4] | – | – | – | 7.61 ± 10.2 µM | – | 1 min | 13.9 µg/mL (≈ 30 µM) | 2.4 ± 2.26 µM | 819 ×10⁻⁶ cm/s | – | – | –
6 | O=[S+]([O-])(Nc1ccnc2c1c(-c1ccc3c(c1)N(C1CC1)CC31CC1)cn2C1CC1)c1ccn(C2CC2)n1 [NCGC00650101, [O-][S+](=O)(NC1=C2C(=CN(C3CC3)C2=NC=C1)C4=CC5=C(C=C4)C6(CC6)CN5C7CC7)C8=NN(C=C8)C9CC9] | – | – | – | 1.22 ± 0.32 µM | – | 1.2 min | 36.8 µg/mL (≈ 69.9 µM) | 11.6 ± 8.72 µM | 81.8 ×10⁻⁶ cm/s | – | – | –

Reference: PMC9894920, “Development of an improved and specific inhibitor of NADPH oxidase 2 to treat traumatic brain injury” (Redox Biology, 2023)
